Assay results taken from patent publication US6579689B2, “Modulation of γ-secretase activity” (Scios Inc., priority 2000, dated 2003).

System: γ-secretase
Assay: Cell-free 0.5% CHAPS solubilized γ-secretase activity, Aβ production (Aβ40 ELISA)
Assay type: biochemical, monkey
Conditions: for enhancement of γ-secretase activity by other phospholipids, compared with cardiolipin: concentration not given
Experimental: To produce membranes containing high levels of CT99, ˜10^9 CV-1 monkey fibroblast cells were infected with VV99 for 48 hours. After this period, the cells were harvested, washed with saline, and pelleted by low speed centrifugation at 1200 rpm for 10 minutes at 4° C. The cell pellet was resuspended in 25 mls 0.25 M sucrose, 10 mM Tris-HCl pH 7.5, 1 mM EDTA then homogenized with a Dounce homogenizer using a tight fitting pestle. The sample is centrifuged at 2300 rpm for 10 minutes at 4° C. This homogenization step was repeated.
The resulting pellets containing nuclei and large debris were discarded and the post-nuclear supernatants were combined. The supernatant fraction was centrifuged at 100,000×g for 30-60 minutes at 4° C. to collect membranes. The membranes were washed in buffer containing 0.2% saponin, 10 mM Tris-HCl pH 7.5, 1 mM EDTA to remove contaminating proteolytic activity, followed by centrifugation at 100,000×g for 30 minutes at 4° C. This step was repeated. Membranes at this stage can be used directly for assaying γ-secretase activity, or may be further treated to provide solubilized γ-secretase activity.
The saponin-washed membrane fraction was next solubilized with 0.5% CHAPS prepared in 10 mM Tris-HCl pH 7.5 with 5 mM EDTA. Aliquots of membranes containing γ-secretase activity were treated with detergent at 0° C. for 1 hour after which the treated samples were centrifuged at 100,000×g for 1 hour at 4° C. The resulting supernatants (soluble fractions) were assayed for Aβ production. 0.5% CHAPS was successful in solubilizing and preserving the γ-secretase activity.
To produce Aβ protein in vitro, an aliquot of the saponin-washed fraction or an aliquot of the 0.5% CHAPS treated soluble fraction was first adjusted to pH 7.0 by making a 1:10 dilution of the fraction with 1 M Tris-HCl pH 7.0 for a final concentration of 100mM Tris-HC1. The neutralized samples were incubated at 37° C. for various lengths of time, typically ranging from 0 (control) to 24 hours. After incubation, the samples were assayed for Aβ production as follows.
Wells of a 96-microtiter plate were coated overnight at 4° C. with 100 μl/well of a 4 μg/ml solution of purified monoclonal antibody 1702.1 diluted in phosphate buffered saline (PBS). The 1702.1 monoclonal antibody specifically recognizes the Aβ40 isoform. […] The plate is washed three times with PBS 0.05% Tween 20 and the amount of 1101.1 second antibody bound to the well is detected with HRP-conjugated Streptavidin (Zymed) using a tetramethylbenzidine substrate (Sigma). The resulting colormetric reaction is quantified by reading the plate at OD^450nm. The amount of Aβ40 present in the test sample is calculated from known amounts of synthetic Aβ40 peptide standard run in the ELISA. […]

Molecule | enhancement of γ-secretase activity by other phospholipids, compared with cardiolipin | enhancement of γ-secretase activity (Aβ production) by added phospholipid (1 μM cardiolipin, FIG. 4)
phosphotidylcholine | comparable results | –
cardiolipin | – | nearly equivalent to the activity originally present in the membranes prior to solubilization
CCCCCCCCCCCCCCCC(=O)OC[C@H](COP(=O)([O-])OCC[N+](C)(C)C)OC(=O)CCCCCCCCCCCCCCC [1,2 dipalmitoyl-5-glycerol-3-phosphocholine] | comparable results | –
phosphotidylserine | comparable results | –
